IC50 data for 49 compounds are collected here from PubChem BioAssay AID1361 (SRMLSC, 2008).

A short description of the assay: mitochondrial fusion inhibitors, confirmation, cell-based, chemical genetic, wild-type and mutant (AID 1361). Conditions: Cell-based mitochondrial fusion phenotype, imaging.
The mark [1] stands for this setting: mutant cells, measured here: mutant cell line IC50.

The source made the active and inactive calls. The rule behind the calls is not given here. Where only a bound is given, the exact number is not on record here.

Usually IC50 stands for the midpoint of a concentration-inhibition curve. On to `COc1cc(SC#N)ccc1N=Cc1c(C)[nH]n(-c2ccc(C)cc2)c1=O`, for which the IC50 by setting is: (WT cells) 17.4 µM; under setting [1], more than 25 µM.

Regarding `Clc1ccc2c(c1)C(c1ccccc1Cl)=NCc1nnc(N3CCN(CCSc4ccccc4)CC3)n1-2`, the IC50 runs as follows: (WT cells) 13.9 µM; under setting [1], more than 25 µM.

In the case of `Cc1cc(C)n(CC(O)Cn2c3ccc(Br)cc3c3cc(Br)ccc32)c(=O)n1` (stereo not drawn), the IC50 was 11 µM (WT cells) and more than 25 µM under setting [1].

For `Cc1cc(Cl)ccc1OCC(=O)Nc1nc(-c2cccs2)cs1`, the IC50 is, setting by setting: (WT cells) 13.4 µM (inactive); under setting [1], 9.8 µM.

For the compound `COCCn1c(SCc2cc(C(C)=O)ccc2OC)nc2cc(Cl)ccc2c1=O`, the IC50 is 8.09 µM (WT cells) and more than 25 µM under setting [1].

Consider `O=C(c1cc(Cl)cc(Cl)c1)N1CCC(=O)N(C(COCc2ccccc2)Cc2ccccc2)CC1` (stereo not drawn), for which the IC50 reads like this: (WT cells) > 25 µM (inactive); under setting [1], more than 25 µM.

For `Fc1ccc(N2N=C(c3cccs3)CC2c2ccco2)c(F)c1` (stereo not drawn), the IC50 reads like this: (WT cells) 15.8 µM; under setting [1], 22.3 µM.

As to `CC(C)CCNC(=O)CCCOc1cc(=O)n(C)c2ccccc12`, the IC50 is, setting by setting: (WT cells) > 25 µM (inactive); under setting [1], more than 25 µM.

As to `C/C=C(\C)CN1CCN(c2cc(C)ccc2C)CC1`, the IC50 reads like this: (WT cells) > 25 µM (inactive); under setting [1], more than 25 µM.

In the case of `COc1cccc2cc(C(=O)N3CCc4ccccc43)c(=O)oc12`, the IC50 was > 25 µM (inactive) (WT cells) and more than 25 µM under setting [1].

For the compound `O=C(NCc1ccccc1)c1ccc(C(=O)N(C2CCCCC2)C2CCCCC2)cc1`, the IC50 was > 25 µM (inactive) (WT cells) and more than 25 µM under setting [1].

As to `Cc1nc2ccc(NC(=O)c3nn(CC(C)C)c(=O)c4ccccc34)cc2s1`, the IC50 is, setting by setting: (WT cells) > 25 µM (inactive); under setting [1], more than 25 µM.

With `CCOC(=O)c1c(NC(=O)C(C)N2CCN(C(=O)c3ccco3)CC2)sc2c1CCCC2` (stereo not drawn), the IC50 runs as follows: (WT cells) 10.9 µM; under setting [1], more than 25 µM.

As for `CCCCN(C(=O)c1cccc2c(=O)c(C)c(-c3ccccc3)oc12)c1ccccc1`, the IC50 was 14.7 µM (WT cells) and more than 25 µM under setting [1].

Take `O=C(Nc1cccc(Cl)c1N1CCCC1)c1ccc(Br)o1`: the IC50 by setting is: (WT cells) 18.1 µM; under setting [1], more than 25 µM.

For `COc1ccc(NC(=O)Nc2cccc([N+](=O)[O-])c2)cc1Cl`, the IC50 was > 25 µM (inactive) (WT cells) and more than 25 µM under setting [1].

`Cc1ccc(C(C)C)c(OCCNC(=S)Nc2cccc3ccccc23)c1`: the IC50 is 6.51 µM (WT cells) and more than 25 µM under setting [1].

Consider `O=C(c1ccc2c(c1)OCO2)N(Cc1ccco1)C1(C(=O)NC2CCCCC2)CCCCC1`, for which the IC50 (WT cells) is > 25 µM (inactive) and the IC50 under setting [1] is more than 25 µM.

Turning to `COC(=O)C1=C(Nc2ccc(C)cc2)C=C(C)C(C(=O)OC)C1c1ccc(F)cc1` (stereo not drawn), the IC50 (WT cells) was 6.62 µM and the IC50 under setting [1] was more than 25 µM.

`Cc1ccc(-n2cc(-c3ccccc3)c3c(N4CCOCC4)ncnc32)cc1`: the IC50 was 21 µM (WT cells) and more than 25 µM under setting [1].

Consider `Cc1ccc(-c2csc3ncnc(N4CCc5ccccc5C4)c23)cc1`, for which the IC50 by setting is: (WT cells) 9.52 µM; under setting [1], more than 25 µM.

Regarding `O=C(NCc1ccccc1Cl)c1cnccn1`, the IC50 by setting is: (WT cells) > 25 µM (inactive); under setting [1], more than 25 µM.

On to `CN(c1cccc(NC(=O)Nc2ccc(Cl)cc2)c1)S(C)(=O)=O`, for which the IC50 (WT cells) is > 25 µM (inactive) and the IC50 under setting [1] is more than 25 µM.

Take `Nc1c(C(=O)NC2CCCC2)sc2nc(-c3cccs3)ccc12`: the IC50 was > 25 µM (inactive) (WT cells) and more than 25 µM under setting [1].

Regarding `CCOc1ccccc1CNC(=O)c1ccc(Sc2ccc(Cl)cc2)c(NC(C)=O)c1`, the IC50 is 16.9 µM (WT cells) and more than 25 µM under setting [1].

`CCOc1ccccc1NC(=O)NC(=O)N(C)S(=O)(=O)c1ccc(C)cc1`: the IC50 was > 25 µM (inactive) (WT cells) and more than 25 µM under setting [1].

On to `Cc1cccn2c(=O)c(C=NCc3ccco3)c(Nc3ccc(SC(F)F)cc3)nc12`, for which the IC50 (WT cells) was > 25 µM (inactive) and the IC50 under setting [1] is more than 25 µM.

Regarding `CC1CCN(C(=O)/C=C/c2ccc(C(C)(C)C)cc2)CC1`, the IC50 is, setting by setting: (WT cells) > 25 µM (inactive); under setting [1], more than 25 µM.

For `CCOc1ccccc1NC(=O)C(OC(=O)c1ccc(O)cc1)c1ccccc1` (stereo not drawn), the IC50 reads like this: (WT cells) 9.83 µM; under setting [1], more than 25 µM.

For the compound `CCCCOc1c(Br)cc(/C=N/O)cc1OCC`, the IC50 is, setting by setting: (WT cells) > 25 µM (inactive); under setting [1], more than 25 µM.

In the case of `CC(C)CCN(C(=S)Nc1cccc(F)c1)C(C)c1cccs1` (stereo not drawn), the IC50 (WT cells) is 19.4 µM and the IC50 under setting [1] is more than 25 µM.

Take `COc1ccc(Br)cc1CN(C)CC(=O)Nc1cc(Cl)cc(Cl)c1`: the IC50 was 9.17 µM (WT cells) and 22.1 µM under setting [1].

As for `O=C(Nc1ccccn1)c1ccco1`, the IC50 runs as follows: (WT cells) > 25 µM (inactive); under setting [1], more than 25 µM.

As for `Cn1c(=O)c2c(nc(N3CCCCCC3)n2Cc2cccc3ccccc23)n(C)c1=O`, the IC50 by setting is: (WT cells) 10 µM; under setting [1], more than 25 µM.

As to `CCC(C)Nc1c([N+](=O)[O-])cc(C)cc1[N+](=O)[O-]` (stereo not drawn), the IC50 (WT cells) was > 25 µM (inactive) and the IC50 under setting [1] was more than 25 µM.

In the case of `CCCNC(=S)Nc1ccc2nc(-c3ccccn3)c(-c3ccccn3)nc2c1`, the IC50 was > 25 µM (inactive) (WT cells) and more than 25 µM under setting [1].

As to `CC(Oc1ccc(Cl)cc1Cl)C(=O)NCCCCc1ccccc1` (stereo not drawn), the IC50 (WT cells) was > 25 µM (inactive) and the IC50 under setting [1] is more than 25 µM.

For `N=c1c(C(=O)NCc2ccco2)cc2c(=O)n3ccccc3nc2n1Cc1ccc(Cl)cc1`, the IC50 was > 25 µM (inactive) (WT cells) and more than 25 µM under setting [1].

Turning to `NC(=S)N/N=C/c1ccccc1OCCSc1ccc(Cl)cc1`, the IC50 is, setting by setting: (WT cells) 6.86 µM; under setting [1], 12 µM.

For the compound `COCC(C)n1c(SCc2ccc(OC)c(F)c2)nc2ccccc2c1=O` (stereo not drawn), the IC50 (WT cells) was 15.3 µM and the IC50 under setting [1] was more than 25 µM.

Turning to `NS(=O)(=O)c1ccc(N2N=C(c3ccccc3)CC2c2ccccc2)cc1` (stereo not drawn), the IC50 reads like this: (WT cells) 12.1 µM; under setting [1], more than 25 µM.

In the case of `CC1(C(=O)N(Cc2ccccc2)Cc2ccccc2)CC1(Br)Br` (stereo not drawn), the IC50 is, setting by setting: (WT cells) 15.7 µM; under setting [1], more than 25 µM.

Consider `c1ccc(Cn2c(SCc3cn4cccnc4n3)nnc2-c2ccco2)cc1`, for which the IC50 runs as follows: (WT cells) > 25 µM (inactive); under setting [1], more than 25 µM.

For the compound `CCC(=O)Nc1ccc(-c2nnc(SCc3ccc(C(=O)Nc4nccs4)cc3)n2CC)cc1`, the IC50 reads like this: (WT cells) > 25 µM (inactive); under setting [1], more than 25 µM.

For the compound `O=C(COC(=O)C1(c2ccc(Cl)cc2)CCCC1)Nc1ncc(C(F)(F)F)cc1Cl`, the IC50 was 18.2 µM (WT cells) and more than 25 µM under setting [1].

Turning to `Cc1ccc(NC(=O)CCC(=O)OCC(=O)c2ccc(Oc3ccc([N+](=O)[O-])cc3)cc2)cc1C`, the IC50 runs as follows: (WT cells) > 25 µM (inactive); under setting [1], more than 25 µM.

For `Cc1ccc(C(C(=O)NCC2CCCO2)N(Cc2ccccc2)C(=O)c2ccc(-c3ccccc3)[nH]2)o1` (stereo not drawn), the IC50 by setting is: (WT cells) 10.9 µM; under setting [1], more than 25 µM.

`CCOc1cccc(-c2nn(-c3ccccc3)cc2/C=C(/C#N)C(=O)NCCCn2ccnc2)c1`: the IC50 runs as follows: (WT cells) > 25 µM (inactive); under setting [1], more than 25 µM.

`CC(=O)N1N=C(c2ccc(C)cc2)OC1c1ccc(Br)cc1` (stereo not drawn): the IC50 by setting is: (WT cells) 21 µM; under setting [1], more than 25 µM.
